# Earlier results as cited in US9512385B2, “Disinfectant solution for nonionic soft contact lenses” (MENICON CO., LTD., priority 2012, dated 2016).
# Conditions: background art statement
substance,measurement,value
polylysine,IC50 value in cytotoxicity test relative to PHMB,about several hundredth part of that of PHMB
